Measured values reported in publication PMC6318015 (Cancer research, 2018).

Molecular target: BRD4 (Homo sapiens, UniProt O60885)
Test: PROTAC-induced BRD4 degradation in HCT116 cells, immunoblot, […] h
Format: cell-based

DC50: 23.1 nM
Compound: Cc1ncsc1-c1ccc(CNC(=O)[C@@H]2C[C@@H](O)CN2C(=O)[C@@H](NC(=O)COCCCCOCCCOc2ccc(NC(=O)C[C@@H]3N=C(c4ccc(Cl)cc4)c4c(sc(C)c4C)-n4c(C)nnc43)cc2)C(C)(C)C)cc1 [A743]
